From PubChem BioAssay (NCI)
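All cell lines were grown in 96-well plates and treated with compound for 48 hours. The concentration for 50% growth inhibition is given as GI50. TGI denotes the concentration required for complete inhibition of growth.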

Experiments:
Experiment in all cases: growth of human tumour cells (NCI), 48 h
RPMI-8226 leukemia = system: RPMI-8226 leukemia
786-0 renal = system: 786-0 renal
TK-10 renal = system: TK-10 renal
U251 CNS = system: U251 CNS
HCT-15 colon = system: HCT-15 colon
SW-620 colon = system: SW-620 colon
HS 578T breast = system: HS 578T breast
SK-OV-3 ovarian = system: SK-OV-3 ovarian
BT-549 breast = system: BT-549 breast
NCI-H460 lung = system: NCI-H460 lung
SNB-75 CNS = system: SNB-75 CNS
CAKI-1 renal = system: CAKI-1 renal
UACC-62 melanoma = system: UACC-62 melanoma
MDA-MB-231 breast = system: MDA-MB-231 breast
HCC-2998 colon = system: HCC-2998 colon
NCI/ADR-RES ovarian = system: NCI/ADR-RES ovarian
EKVX NSCLC = system: EKVX NSCLC
K-562 leukemia = system: K-562 leukemia
NCI-H522 lung = system: NCI-H522 lung
SNB-19 CNS = system: SNB-19 CNS
MDA-MB-435 = system: MDA-MB-435
MALME-3M melanoma = system: MALME-3M melanoma
MCF7 breast = system: MCF7 breast
KM12 colon = system: KM12 colon
T-47D breast = system: T-47D breast
DU-145 prostate = system: DU-145 prostate
NCI-H23 lung = system: NCI-H23 lung
SF-268 CNS = system: SF-268 CNS
HOP-62 NSCLC = system: HOP-62 NSCLC
A549 NSCLC = system: A549 NSCLC
SK-MEL-5 melanoma = system: SK-MEL-5 melanoma
UO-31 renal = system: UO-31 renal
COLO 205 colon = system: COLO 205 colon
ACHN renal = system: ACHN renal
OVCAR-3 ovarian = system: OVCAR-3 ovarian
HT29 colon = system: HT29 colon
RXF 393 renal = system: RXF 393 renal
SF-539 CNS = system: SF-539 CNS
HCT-116 colon = system: HCT-116 colon
OVCAR-4 ovarian = system: OVCAR-4 ovarian

For Nc1ccn(C2OC(CO)C3[O][Sn]([c]4ccccc4)([c]4ccccc4)[O]C32)c(=O)n1 (stereo not given), the GI50 (RPMI-8226 leukemia) was 13.7 µM, the TGI (RPMI-8226 leukemia) was 49.1 µM and the GI50 (786-0 renal) was 0.656 µM. The GI50 (TK-10 renal) was 32.3 µM, the GI50 (U251 CNS) was 0.617 µM and the TGI (U251 CNS) was 22.8 µM. It also gave a GI50 (HCT-15 colon) of 15 µM, a GI50 (SW-620 colon) of 0.803 µM and a TGI (SW-620 colon) of 61.5 µM. For the same compound, the GI50 (HS 578T breast) was 29.5 µM, the GI50 (SK-OV-3 ovarian) was 26.6 µM and the GI50 (BT-549 breast) was 30.7 µM. For the same compound, the GI50 (NCI-H460 lung) was 0.0187 µM, the GI50 (SNB-75 CNS) was 14 µM and the TGI (SNB-75 CNS) was 50.1 µM. For the same compound, the GI50 (CAKI-1 renal) was 4.66 µM, the GI50 (UACC-62 melanoma) was 6.36 µM and the GI50 (MDA-MB-231 breast) was 24.1 µM. The TGI (MDA-MB-231 breast) was 82.6 µM, the GI50 (HCC-2998 colon) was 0.0629 µM and the TGI (HCC-2998 colon) was 17.9 µM. For the same compound, the GI50 (NCI/ADR-RES ovarian) was 4.73 µM, the GI50 (EKVX NSCLC) was 34.2 µM and the GI50 (K-562 leukemia) was 53.2 µM. The GI50 (NCI-H522 lung) was 10.8 µM, the TGI (NCI-H522 lung) was 29 µM and the GI50 (SNB-19 CNS) was 3.34 µM. It also gave a GI50 (MDA-MB-435) of 6.25 µM, a GI50 (MALME-3M melanoma) of 17.9 µM and a GI50 (MCF7 breast) of 0.0984 µM. The GI50 (KM12 colon) was 35.5 µM, the GI50 (T-47D breast) was 15.3 µM and the GI50 (DU-145 prostate) was 0.149 µM. It also gave a TGI (DU-145 prostate) of 19.6 µM, a GI50 (NCI-H23 lung) of 0.39 µM and a GI50 (SF-268 CNS) of 1.79 µM. It also gave a GI50 (HOP-62 NSCLC) of 1.51 µM, a GI50 (A549 NSCLC) of 0.0344 µM and a GI50 (SK-MEL-5 melanoma) of 3.75 µM. For the same compound, the GI50 (UO-31 renal) was 0.221 µM, the GI50 (COLO 205 colon) was 0.141 µM and the GI50 (ACHN renal) was 0.361 µM. It also gave a GI50 (OVCAR-3 ovarian) of 34.8 µM, a GI50 (HT29 colon) of 1.45 µM and a GI50 (RXF 393 renal) of 1.73 µM. It also gave a TGI (RXF 393 renal) of 22.3 µM, a GI50 (SF-539 CNS) of 2.17 µM and a TGI (SF-539 CNS) of 20.5 µM. The GI50 (HCT-116 colon) was 0.024 µM and the GI50 (OVCAR-4 ovarian) was 43.1 µM.
